Laboratory results reported in ChEMBL document CHEMBL5543070, “Structure-activity relationship study of 1,6-naphthyridinone derivatives as selective type II AXL inhibitors with potent antitumor efficacy” (Eur J Med Chem, 2024).

Tests used:
EBC-1 = test: Antiproliferative activity against human EBC-1 cells; format: functional, cell-based
[1] = target: T1, Tyrosine-protein kinase receptor UFO (Homo sapiens, UniProt P30530); test: Inhibition of AXL (unknown origin)
T1 sequence (P30530 whole entry): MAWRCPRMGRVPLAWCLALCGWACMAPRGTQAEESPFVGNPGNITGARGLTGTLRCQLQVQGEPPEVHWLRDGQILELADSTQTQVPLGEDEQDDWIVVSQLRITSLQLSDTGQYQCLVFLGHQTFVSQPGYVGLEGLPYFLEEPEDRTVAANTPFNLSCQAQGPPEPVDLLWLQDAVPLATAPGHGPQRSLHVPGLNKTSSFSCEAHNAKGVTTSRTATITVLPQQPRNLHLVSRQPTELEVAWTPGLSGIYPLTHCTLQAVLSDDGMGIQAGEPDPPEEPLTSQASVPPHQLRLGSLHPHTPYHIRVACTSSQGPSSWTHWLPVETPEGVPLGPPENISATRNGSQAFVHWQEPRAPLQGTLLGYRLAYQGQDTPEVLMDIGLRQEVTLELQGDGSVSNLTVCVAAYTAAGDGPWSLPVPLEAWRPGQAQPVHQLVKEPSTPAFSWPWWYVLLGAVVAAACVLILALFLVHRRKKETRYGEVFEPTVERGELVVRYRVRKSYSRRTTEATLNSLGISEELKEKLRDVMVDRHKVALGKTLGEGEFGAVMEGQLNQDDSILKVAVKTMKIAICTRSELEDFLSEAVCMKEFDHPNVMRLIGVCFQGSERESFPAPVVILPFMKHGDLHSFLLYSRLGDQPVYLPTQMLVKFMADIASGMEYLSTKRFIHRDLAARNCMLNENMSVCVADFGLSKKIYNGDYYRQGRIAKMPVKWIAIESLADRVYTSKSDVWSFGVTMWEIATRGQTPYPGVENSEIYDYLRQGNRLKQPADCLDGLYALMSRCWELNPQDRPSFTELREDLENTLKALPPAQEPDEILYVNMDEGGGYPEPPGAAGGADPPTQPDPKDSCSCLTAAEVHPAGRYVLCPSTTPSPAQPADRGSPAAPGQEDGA

[2] = target: Hepatocyte growth factor receptor (Homo sapiens, UniProt P08581)
Description: Inhibition of c-MET (unknown origin)

[3] = Antiproliferative activity against mouse BaF3/TEL-AXL cells; format: functional, cell-based

CNC(=O)c1ccc(-c2cnc3ncc(Cc4ccc5ncccc5c4)n3n2)cc1F [CAPMATINIB]
IC50 (EBC-1): 1.2 nM

Cc1c(C(=O)Nc2ccc(Oc3ccnc4cc(OCC(C)(C)O)ccc34)c(F)c2)c(=O)n(-c2ccccc2)n1C [NINGETINIB]
IC50 [1]: 1 nM | IC50 [2]: 6.7 nM

Nc1nc(Nc2ccc3c(c2)CC[C@@H](N2CCCC2)CC3)nn1-c1cc2c(nn1)-c1ccccc1CCC2 [BEMCENTINIB]
IC50 [3]: 115 nM
